Experimental data reported in US7767659B2, “Synthesis of naturally occurring ecteinascidins and related compounds” (Pharma Mar, S.A., priority 2002, dated 2010).

Legend:
LoVo = assay: cells; settings: Homo sapiens, LoVo, 48 h; for GI50: read-out: LOVO GI50; for CC50: read-out: LOVO LC50; for IC (TGI): read-out: LOVO TGI
Procedure, shortened: (§1)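 Colorimetric SRB read (490 nm) on triplicate wells after 48 h at 37 °C, 5% CO2. Dose range 10 to 10^−8 μg/ml; 5×10^3 cells/well pre-attached 18 h.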

A-549 = assay: cells; settings: Homo sapiens, A549, 48 h; for GI50: read-out: A549 GI50; for CC50: read-out: A549 LC50; for IC (TGI): read-out: A549 TGI
Procedure, shortened: as §1

HT-29 = assay: cells; settings: Homo sapiens, HT-29, 48 h; for GI50: read-out: HT29 GI50; for CC50: read-out: HT29 LC50; for IC (TGI): read-out: HT29 TGI
Procedure, shortened: as §1

IGROV-ET = assay: Inhibition of cells growth by colorimetric assay (SRB); settings: Homo sapiens, 48 h; for GI50: read-out: IGROV-ET GI50; for CC50: read-out: IGROV-ET LC50; for IC (TGI): read-out: IGROV-ET TGI
Procedure, shortened: as §1

LNCaP = assay: as above; settings: Homo sapiens, LNCaP, 48 h; for GI50: read-out: LNCAP GI50; for CC50: read-out: LNCAP LC50; for IC (TGI): read-out: LNCAP TGI
Procedure, shortened: as §1

SK-MEL-28 = assay: as above; settings: Homo sapiens, SK-MEL-28, 48 h; for GI50: read-out: MEL-28 GI50; for CC50: read-out: MEL-28 LC50; for IC (TGI): read-out: MEL-28 TGI
Procedure, shortened: as §1

HeLa = assay: as above; settings: Homo sapiens, HeLa, 48 h; for GI50: read-out: HELA GI50; for CC50: read-out: HELA LC50; for IC (TGI): read-out: HELA TGI
Procedure, shortened: as §1

DU-145 = assay: as above; settings: Homo sapiens, DU-145, 48 h; for GI50: read-out: DU145 GI50; for CC50: read-out: DU145 LC50; for IC (TGI): read-out: DU145 TGI
Procedure, shortened: as §1

IGROV-1 = assay: as above; settings: Homo sapiens, IGROV-1, 48 h; for GI50: read-out: IGROV GI50; for CC50: read-out: IGROV LC50; for IC (TGI): read-out: IGROV TGI
Procedure, shortened: as §1

LoVo-Dox = assay: as above; settings: Homo sapiens, 48 h; for GI50: read-out: LOVO-DOX GI50; for CC50: read-out: LOVO-DOX LC50; for IC (TGI): read-out: LOVO-DOX TGI
Procedure, shortened: as §1

SK-BR-3 = assay: as above; settings: Homo sapiens, SK-BR-3, 48 h; for GI50: read-out: SK-BR3 GI50; for CC50: read-out: SK-BR3 LC50; for IC (TGI): read-out: SK-BR3 TGI
Procedure, shortened: as §1

HeLa-APL = assay: as above; settings: Homo sapiens, 48 h; for GI50: read-out: HELA-APL GI50; for CC50: read-out: HELA-APL LC50; for IC (TGI): read-out: HELA-APL TGI
Procedure, shortened: as §1

PANC-1 = assay: as above; settings: Homo sapiens, PANC-1, 48 h; for GI50: read-out: PANC-1 GI50; for CC50: read-out: PANC-1 LC50; for IC (TGI): read-out: PANC-1 TGI
Procedure, shortened: as §1

K-562 = assay: as above; settings: Homo sapiens, K562, 48 h; for GI50: read-out: K562 GI50; for CC50: read-out: K562 LC50; for IC (TGI): read-out: K562 TGI
Procedure, shortened: as §1

C=CCN1[C@@H]2c3c(cc(C)c(OC)c3O)C[C@H]1[C@H](C#N)N1C2[C@@H]2SC[C@]3(NCCc4c3[nH]c3ccc(C)cc43)C(=O)OC[C@H]1c1c3c(c(C)c(OC(C)=O)c12)OCO3 (stereo partly drawn) [compound 58]
GI50 (LoVo): 139 nM
CC50 (LoVo): 581 nM
IC (TGI) (LoVo): 285 nM
GI50 (A-549): 216 nM
CC50 (A-549): 1240 nM
IC (TGI) (A-549): 517 nM
GI50 (HT-29): 297 nM
CC50 (HT-29): 12400 nM
IC (TGI) (HT-29): 1540 nM
GI50 (IGROV-ET): 188 nM
CC50 (IGROV-ET): 949 nM
IC (TGI) (IGROV-ET): 422 nM
GI50 (LNCaP): 29.9 nM
CC50 (LNCaP): 240 nM
IC (TGI) (LNCaP): 71.6 nM
GI50 (SK-MEL-28): 241 nM
CC50 (SK-MEL-28): 969 nM
IC (TGI) (SK-MEL-28): 469 nM
GI50 (HeLa): 39.4 nM
CC50 (HeLa): 165 nM
IC (TGI) (HeLa): 70.8 nM
GI50 (DU-145): 46.8 nM
CC50 (DU-145): 12400 nM
IC (TGI) (DU-145): 88.8 nM
GI50 (IGROV-1): 93.9 nM
CC50 (IGROV-1): 1040 nM
IC (TGI) (IGROV-1): 305 nM
GI50 (LoVo-Dox): 483 nM
CC50 (LoVo-Dox): 12400 nM
IC (TGI) (LoVo-Dox): 2260 nM
GI50 (SK-BR-3): 20.9 nM
CC50 (SK-BR-3): 2550 nM
IC (TGI) (SK-BR-3): 75 nM
GI50 (HeLa-APL): 61 nM
CC50 (HeLa-APL): 1160 nM
IC (TGI) (HeLa-APL): 190 nM
GI50 (PANC-1): 379 nM
CC50 (PANC-1): 12400 nM
IC (TGI) (PANC-1): 1270 nM
GI50 (K-562): 26.4 nM
CC50 (K-562): 12400 nM
IC (TGI) (K-562): 94.2 nM

COc1cc2c(cc1O)CCN[C@]21C[S+]([O-])[C@@H]2c3c(OC(C)=O)c(C)c4c(c3[C@H](COC1=O)N1C2C2c3c(cc(C)c(OC)c3O)C[C@@H]([C@@H]1O)N2C)OCO4 (stereo partly drawn) [Et-759B]
GI50 (LoVo): 327 nM
CC50 (LoVo): 118 nM
IC (TGI) (LoVo): 62.1 nM
GI50 (A-549): 26.2 nM
CC50 (A-549): 702 nM
IC (TGI) (A-549): 61.3 nM
GI50 (HT-29): 41.9 nM
CC50 (HT-29): 12900 nM
IC (TGI) (HT-29): 2290 nM
GI50 (IGROV-ET): 58.2 nM
CC50 (IGROV-ET): 1710 nM
IC (TGI) (IGROV-ET): 273 nM
GI50 (LNCaP): 4.64 nM
CC50 (LNCaP): 52.2 nM
IC (TGI) (LNCaP): 16.7 nM
GI50 (SK-MEL-28): 19.7 nM
CC50 (SK-MEL-28): 123 nM
IC (TGI) (SK-MEL-28): 49.1 nM
GI50 (HeLa): 21.3 nM
CC50 (HeLa): 527 nM
IC (TGI) (HeLa): 64.2 nM
GI50 (DU-145): 391 nM
CC50 (DU-145): 11900 nM
IC (TGI) (DU-145): 3200 nM
GI50 (IGROV-1): 22.9 nM
CC50 (IGROV-1): 10000 nM
IC (TGI) (IGROV-1): 65.2 nM
GI50 (LoVo-Dox): 192 nM
CC50 (LoVo-Dox): 12900 nM
IC (TGI) (LoVo-Dox): 625 nM
GI50 (SK-BR-3): 5.37 nM
CC50 (SK-BR-3): 88.1 nM
IC (TGI) (SK-BR-3): 11.6 nM
GI50 (HeLa-APL): 35.9 nM
CC50 (HeLa-APL): 1040 nM
IC (TGI) (HeLa-APL): 102 nM
GI50 (PANC-1): 35.5 nM
CC50 (PANC-1): 11000 nM
IC (TGI) (PANC-1): 122 nM
GI50 (K-562): 6 nM
CC50 (K-562): 12900 nM
IC (TGI) (K-562): 37.9 nM
